In experiment [1] the target is WRN (BV08), human Werner helicase (Uniprot Q14191, amino acids 517-1235 with L1074F point mutation) (Homo sapiens (Human), UniProt Q14191, L1074F). The experiment can be described thus: WRN (BV08) ADP-Glo assay. The class given is biochemical. Conditions: class symbols A-E, read-out: ADP-Glo_hWRN_IC50.
Experiment [2] relates to p21 induction in HCT116 cells. The experiment can be described thus: p21 induction in HCT116 cells. The conditions noted are these: Homo sapiens, HCT-116, 24 h, HCT116 cells, 24 h compound incubation; read-out: P21_EC50. The class given is cell-based. An outline of the steps: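 EC50 from non-linear curve fit of p21 immunofluorescence (800 nm), with GAPDH (700 nm) read alongside. DMSO and a reference WRN inhibitor served as low and high controls. Cells (2,000/well) got 11 compound concentrations in duplicate for 24 h at 37 °C.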

WRN (BV08), human Werner helicase (Uniprot Q14191, amino acids 517-1235 with L1074F point mutation), sequence (Q14191 other isoform, or with tags, fused parts or gaps L1074F (already in the parent)): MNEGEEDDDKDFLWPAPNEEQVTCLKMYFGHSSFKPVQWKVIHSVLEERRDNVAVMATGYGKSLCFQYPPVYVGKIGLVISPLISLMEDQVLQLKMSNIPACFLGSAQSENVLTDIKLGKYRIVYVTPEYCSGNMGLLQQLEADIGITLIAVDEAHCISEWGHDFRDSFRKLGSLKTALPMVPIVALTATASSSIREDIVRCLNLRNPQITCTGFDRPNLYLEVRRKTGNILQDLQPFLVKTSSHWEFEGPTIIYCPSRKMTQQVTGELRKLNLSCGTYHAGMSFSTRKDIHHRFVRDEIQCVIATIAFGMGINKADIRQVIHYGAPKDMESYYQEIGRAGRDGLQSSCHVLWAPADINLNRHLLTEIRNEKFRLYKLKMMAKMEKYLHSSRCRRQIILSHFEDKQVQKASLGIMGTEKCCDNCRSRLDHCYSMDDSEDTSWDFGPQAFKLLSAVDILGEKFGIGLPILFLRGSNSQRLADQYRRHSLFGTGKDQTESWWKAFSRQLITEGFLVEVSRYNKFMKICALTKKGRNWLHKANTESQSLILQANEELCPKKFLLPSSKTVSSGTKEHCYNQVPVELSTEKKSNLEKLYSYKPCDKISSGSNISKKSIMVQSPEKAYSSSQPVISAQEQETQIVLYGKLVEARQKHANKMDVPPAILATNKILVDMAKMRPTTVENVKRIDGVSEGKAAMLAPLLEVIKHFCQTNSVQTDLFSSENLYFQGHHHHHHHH

For the compound `CCc1c(N2CCN(C(=O)c3ncnc(C)c3O)CC2)c(=O)c2nc(N3CCCC3)cnc2n1CC(=O)Nc1ccc(C(F)(F)F)cc1Cl` [I-75, N-(2-chloro-4-(trifluoromethyl)phenyl)-2-(6-ethyl-7-(4-(5-hydroxy-6-methylpyrimidine-4-carbonyl)piperazin-1-yl)-8-oxo-2-(pyrrolidin-1-yl)pyrido[2,3-b]pyrazin-5(8H)-yl)acetamide], in experiment [1], the IC50 was in the range of 5 to 50 nM. In experiment [2], the EC50 was 500 to 2000 nM.
For `CCc1c(N2CCN(C(=O)c3c(O)ccc4[nH]ncc34)CC2)c(=O)c2ncc(C)nc2n1CC(=O)Nc1ccc(C(F)(F)F)cc1Cl` [I-76, N-(2-chloro-4-(trifluoromethyl)phenyl)-2-(6-ethyl-7-(4-(5-hydroxy-1H-indazole-4-carbonyl)piperazin-1-yl)-3-methyl-8-oxopyrido[2,3-b]pyrazin-5(8H)-yl)acetamide] the same measures were 5 to 50 nM and greater than 5000 nM.
For the compound `CCc1c(N2CCN(C(=O)c3nocc3O)CC2)c(=O)c2ncc(C)nc2n1CC(=O)Nc1ccc(C(F)(F)F)cc1Cl` [I-77, N-(2-chloro-4-(trifluoromethyl)phenyl)-2-(6-ethyl-7-(4-(4-hydroxyisoxazole-3-carbonyl)piperazin-1-yl)-3-methyl-8-oxopyrido[2,3-b]pyrazin-5(8H)-yl)acetamide], the IC50 in experiment [1] was 5 to 50 nM. For the same compound, the EC50 in experiment [2] is greater than 5000 nM.
The like results for `CCc1c(N2CCN(C(=O)c3ncnc(C)c3O)CC2)c(=O)c2nc(-c3cnn(C)c3)cnc2n1CC(=O)Nc1ccc(C(F)(F)F)cc1Cl` [I-79, N-(2-chloro-4-(trifluoromethyl)phenyl)-2-(6-ethyl-7-(4-(5-hydroxy-6-methylpyrimidine-4-carbonyl)piperazin-1-yl)-2-(1-methyl-1H-pyrazol-4-yl)-8-oxopyrido[2,3-b]pyrazin-5(8H)-yl)acetamide] were, in that order, 5 to 50 nM and greater than 5000 nM.
In the case of `CCc1c(N2CCN(C(=O)c3ncnc(C)c3O)CC2)c(=O)c2nc(C)cnc2n1CC(=O)Nc1ccc(C(F)(F)F)cc1Cl` [I-80, N-(2-chloro-4-(trifluoromethyl)phenyl)-2-(6-ethyl-7-(4-(5-hydroxy-6-methylpyrimidine-4-carbonyl)piperazin-1-yl)-2-methyl-8-oxopyrido[2,3-b]pyrazin-5(8H)-yl)acetamide], the IC50 in experiment [1] was in the range of 5 to 50 nM. Besides, the EC50 in experiment [2] is greater than 5000 nM.
For `CCc1c(N2CCN(C(=O)c3ncnc(C)c3O)CC2)c(=O)c2nc(OC)cnc2n1CC(=O)Nc1ccc(C(F)(F)F)cc1Cl` [I-81, N-(2-chloro-4-(trifluoromethyl)phenyl)-2-(6-ethyl-7-(4-(5-hydroxy-6-methylpyrimidine-4-carbonyl)piperazin-1-yl)-2-methoxy-8-oxopyrido[2,3-b]pyrazin-5(8H)-yl)acetamide] the same measures were 50 to 100 nM and greater than 5000 nM.
The like results for `CCc1c(N2CCN(C(=O)c3ncnc(C)c3O)CC2)c(=O)c2nc(C3=CCOCC3)cnc2n1CC(=O)Nc1ccc(C(F)(F)F)cc1Cl` [I-82, N-(2-chloro-4-(trifluoromethyl)phenyl)-2-(2-(3,6-dihydro-2H-pyran-4-yl)-6-ethyl-7-(4-(5-hydroxy-6-methylpyrimidine-4-carbonyl)piperazin-1-yl)-8-oxopyrido[2,3-b]pyrazin-5(8H)-yl)acetamide] were, in that order, 5 to 50 nM and greater than 5000 nM.
The like results for `CCc1c(N2CCN(C(=O)c3ncnc(C)c3O)CC2)c(=O)c2nc(C#N)cnc2n1CC(=O)Nc1ccc(C(F)(F)F)cc1Cl` [I-83, N-(2-chloro-4-(trifluoromethyl)phenyl)-2-(2-cyano-6-ethyl-7-(4-(5-hydroxy-6-methylpyrimidine-4-carbonyl)piperazin-1-yl)-8-oxopyrido[2,3-b]pyrazin-5(8H)-yl)acetamide] were, in that order, 5 to 50 nM and greater than 5000 nM.
Turning to `CCc1c(N2CCN(C(=O)c3ncnc(C)c3O)CC2)c(=O)c2nc(C(C)(C)O)cnc2n1CC(=O)Nc1ccc(C(F)(F)F)cc1Cl` [I-84, N-(2-chloro-4-(trifluoromethyl)phenyl)-2-(6-ethyl-7-(4-(5-hydroxy-6-methylpyrimidine-4-carbonyl)piperazin-1-yl)-2-(2-hydroxypropan-2-yl)-8-oxopyrido[2,3-b]pyrazin-5(8H)-yl)acetamide], the IC50 in experiment [1] lay within 50 to 100 nM. For the same compound, the EC50 in experiment [2] was greater than 5000 nM.
The like results for `CCc1c(N2CCN(C(=O)c3ncnc(C)c3O)CC2)c(=O)c2nc(Br)cnc2n1CC(=O)Nc1ccc(C(F)(F)F)cc1Cl` [I-86, 2-(2-bromo-6-ethyl-7-(4-(5-hydroxy-6-methylpyrimidine-4-carbonyl)piperazin-1-yl)-8-oxopyrido[2,3-b]pyrazin-5(8H)-yl)-N-(2-chloro-4-(trifluoromethyl)phenyl)acetamide] were, in that order, 5 to 50 nM and 2000 to 5000 nM.
For `CCc1c(N2CCN(C(=O)c3ncnc(C)c3O)C(C)(C)C2)c(=O)c2nc(N(C)C)cnc2n1CC(=O)Nc1ccc(C(F)(F)F)cc1Cl` [I-87, N-(2-chloro-4-(trifluoromethyl)phenyl)-2-(2-(dimethylamino)-6-ethyl-7-(4-(5-hydroxy-6-methylpyrimidine-4-carbonyl)-3,3-dimethylpiperazin-1-yl)-8-oxopyrido[2,3-b]pyrazin-5(8H)-yl)acetamide] the same measures were 5 to 50 nM and 500 to 2000 nM.
As for `CCc1c(N2CCN(C(=O)c3ncnc(C)c3O)CC2)c(=O)c2nc(N3CC[C@H](O)C3)cnc2n1CC(=O)Nc1ccc(C(F)(F)F)cc1Cl` [I-88, (S)-N-(2-chloro-4-(trifluoromethyl)phenyl)-2-(6-ethyl-7-(4-(5-hydroxy-6-methylpyrimidine-4-carbonyl)piperazin-1-yl)-2-(3-hydroxypyrrolidin-1-yl)-8-oxopyrido[2,3-b]pyrazin-5(8H)-yl)acetamide], in experiment [1], the IC50 lay in the range of 5 to 50 nM. In experiment [2], the EC50 was greater than 5000 nM.
On to `CCc1c(N2CCN(C(=O)c3ncnc(C)c3O)CC2)c(=O)c2nc(N3CCNCC3)cnc2n1CC(=O)Nc1ccc(C(F)(F)F)cc1Cl` [I-89, N-(2-chloro-4-(trifluoromethyl)phenyl)-2-(6-ethyl-7-(4-(5-hydroxy-6-methylpyrimidine-4-carbonyl)piperazin-1-yl)-8-oxo-2-(piperazin-1-yl)pyrido[2,3-b]pyrazin-5(8H)-yl)acetamide], for which the IC50 in experiment [1] fell in the range of 100 to 500 nM. In addition, the EC50 in experiment [2] was greater than 5000 nM.
The like results for `CCc1c(N2CCN(C(=O)c3ncnc(C)c3O)CC2)c(=O)c2nc(C3=CCOC3)cnc2n1CC(=O)Nc1ccc(C(F)(F)F)cc1Cl` [I-90, N-(2-chloro-4-(trifluoromethyl)phenyl)-2-(2-(2,5-dihydrofuran-3-yl)-6-ethyl-7-(4-(5-hydroxy-6-methylpyrimidine-4-carbonyl)piperazin-1-yl)-8-oxopyrido[2,3-b]pyrazin-5(8H)-yl)acetamide] were, in that order, 5 to 50 nM and greater than 5000 nM.
For `CCc1c(N2CCN(C(=O)c3ncnc(C)c3O)CC2)c(=O)c2nc(N3CCn4nccc43)cnc2n1CC(=O)Nc1ccc(C(F)(F)F)cc1Cl` [I-91, N-(2-chloro-4-(trifluoromethyl)phenyl)-2-(2-(2,3-dihydro-1H-imidazo[1,2-b]pyrazol-1-yl)-6-ethyl-7-(4-(5-hydroxy-6-methylpyrimidine-4-carbonyl)piperazin-1-yl)-8-oxopyrido[2,3-b]pyrazin-5(8H)-yl)acetamide] the same measures were 5 to 50 nM and greater than 5000 nM.

Values taken from patent US20250034136A1 (Nimbus Wadjet, Inc., priority 2023, published 2025).
